According to patent publication USRE47193E1, “Selectively substituted quinoline compounds” (EISAI R&D MANAGEMENT CO., LTD., priority 2013, dated 2019):

test system: Human TLR7/8; experiment: Human PBMC cell-based assay, TLR7/8 stimulus (RNA-Ig), cytokine ELISA; conditions: Hu PBMC; ligand RNA-Ig; analyte IL-6
How it was run: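 The agonist was RNA-Ig, a U1 snRNA-derived 26-mer RNA (2.5 μM) complexed with RNA-cross-reacting anti-ssDNA mAb (1:25 or 1 ug/ml), added after 30 min compound pre-incubation (0.1% DMSO). Density-gradient PBMC from healthy donors, 2×10^5/well, were stimulated 20 h at 37 °C; cytokines quantified by ELISA.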

| Structure (SMILES) | IC50 [nM] |
| --- | --- |
| C[C@@H]1CN(c2ccc(C#N)c3ncccc23)C[C@H](C(=O)N[C@H]2CNC[C@H]2F)O1.Cl [ER-899742, (2R,6R)-4-(8-cyanoquinolin-5-yl)-N-[(3S,4R)-4-fluoropyrrolidin-3-yl]-6-methylmorpholine-2-carboxamide hydrochloride] | 0.9 |

same assay, conditions: Hu PBMC; ligand RNA-Ig; analyte IL-6; read-out: IC50

| Structure (SMILES) | IC50 [nM] |
| --- | --- |
| CCN(CCO)CCCC(C)Nc1ccnc2cc(Cl)ccc12 (centres unmarked) [HCQ, hydroxychloroquine, reference compound] | 1000 to 2000 |

same assay, conditions: RNA-Ig TLR7/8 stimulus

| Structure (SMILES) | fold more potent versus HCQ |
| --- | --- |
| C[C@@H]1CN(c2ccc(C#N)c3ncccc23)C[C@H](C(=O)N[C@H]2CNC[C@H]2F)O1.Cl [ER-899742, (2R,6R)-4-(8-cyanoquinolin-5-yl)-N-[(3S,4R)-4-fluoropyrrolidin-3-yl]-6-methylmorpholine-2-carboxamide hydrochloride] | approximately 1000 fold |

same assay, conditions: primary human PBMC assay, TLR7/8 potency; ligand not given; read-out: Human PBMCs IC50

| Structure (SMILES) | IC50 [nM] |
| --- | --- |
| C[C@@H]1CN(c2ccc(C#N)c3ncccc23)C[C@H](C)O1 [ER-878952] | 151 |
| C[C@@H]1CN(c2ccc(C#N)c3ncccc23)C[C@H](CO)O1 [ER-885493, 5-((2R,6R)-2-(hydroxymethyl)-6-methylmorpholino)quinoline-8-carbonitrile] | 180 |
| C[C@@H]1CN(c2ccc(C#N)c3ncccc23)C[C@H](CN2CC[C@H](O)C2)O1 [ER-886820] | 62 |
| C[C@@H]1CN(c2ccc(C#N)c3ncccc23)C[C@H](CN2CCC(O)CC2)O1 [ER-886953] | 26 |
| C[C@@H]1CN(c2ccc(C#N)c3ncccc23)C[C@H](CNC2CCCC2)O1 [ER-887145] | 15 |
| C[C@@H]1CN(c2ccc(C#N)c3ncccc23)C[C@H](CN2CCNCC2)O1 [ER-887253] | 1 |
| C[C@@H]1CN(C[C@H]2CN(c3ccc(C#N)c4ncccc34)C[C@@H](C)O2)CCN1 [ER-887269] | 1 |
| CC1CNC(=O)CN1C[C@H]1CN(c2ccc(C#N)c3ncccc23)C[C@@H](C)O1 (some centres unmarked) [ER-887722] | 65 |
| C[C@@H]1CN(c2ccc(C#N)c3ncccc23)C[C@H](CN2CCN(C)CC2)O1 [ER-887723] | 7 |
| CCCN1CCN(C[C@H]2CN(c3ccc(C#N)c4ncccc34)C[C@@H](C)O2)CC1 [ER-887724] | 6 |
| CC1CN(c2ccc(C#N)c3ncccc23)CC(CN2CCC(N(C)C)CC2)O1 (centres unmarked) [ER-887725] | 2 |
| CC(=O)NC1CCN(CC2CN(c3ccc(C#N)c4ncccc34)CC(C)O2)CC1 (centres unmarked) [ER-888288] | 15 |
| CC1CN(c2ccc(C#N)c3ncccc23)CC(CN2CCN(C)CC2C)O1 (centres unmarked) [ER-889556] | 10 |
| CC1CN(c2ccc(C#N)c3ncccc23)CC(CN2CCC(NC(=O)C(C)C)CC2)O1 (centres unmarked) [ER-889745] | 46 |
| CC[C@H]1CN(C[C@H]2CN(c3ccc(C#N)c4ncccc34)C[C@@H](C)O2)CCN1 [ER-890963] | 2 |
| C[C@@H]1CN(c2ccc(C#N)c3ncccc23)C[C@H](C(=O)NC2CCN(C)CC2)O1 [ER-899464, (2R,6R)-4-(8-cyanoquinolin-5-yl)-6-methyl-N-(1-methylpiperidin-4-yl)morpholine-2-carboxamide] | 1 |

same assay, conditions: read-out: Human PBMCs IC50; primary human PBMC assay, TLR7/8 potency; ligand not given

| Structure (SMILES) | IC50 [nM] |
| --- | --- |
| C[C@@H]1CN(c2ccc(C#N)c3ncccc23)C[C@H](C(=O)N[C@H]2CNC[C@H]2F)O1.Cl [ER-899742, (2R,6R)-4-(8-cyanoquinolin-5-yl)-N-[(3S,4R)-4-fluoropyrrolidin-3-yl]-6-methylmorpholine-2-carboxamide hydrochloride] | 1 |
